From publication PMC10799085, “A miniaturized mode-of-action profiling platform enables high throughput characterization of the molecular and cellular dynamics of EZH2 inhibition” (Scientific Reports, 2024)
Where two headings read alike, the source gives them in different places.

Tests used:
PRC2/EZH2+/+ [1] = biological target: T1, PRC2/EZH2+/+ (Homo sapiens, UniProt Q15910); assay: Kinetic probe competition assay (kPCA), TR-FRET; type: binding; settings: EZH2+/+ (- H3K27me3), sheet ePCA&kPCA RT
T1 construct: purchased Active Motif
Experimental: Biotinylated PRC2 complexes and the fluorescent probe used in TR-FRET assays were generated as described in the supplementary methods section.
For measurements at 25, 30 and 37 °C, the temperature control functionality of the instrument was used.
TR-FRET kPCA traces were exported via Microsoft Excel to GraphPad Prism, where non-specific signals were subtracted and kinetic association competition traces were fitted to the Motulsky–Mahan model “kinetics of competitive binding” to obtain kon (k3), koff (k4) and KD parameters.

PRC2/EZH2+/+ [2] = biological target: T1, PRC2/EZH2+/+; assay: Equilibrium probe competition assay (ePCA), TR-FRET; type: binding
KARPAS-422 cells = assay: Cellular proliferation assay (AlamarBlue, 144 h); type: cell-based; settings: Homo sapiens, KARPAS-422, 144 h, read-out: KARPAS (6-day) Anti-proliferation IC50 (M)
Experimental: Cell viability was determined by means of the AlamarBlue® reagent (Thermo Fisher Scientific) following instructions from the manufacturer. […] Anti-proliferative IC50s were calculated by fitting the normalized AlamarBlue® fluorescence values to a 4-parameter logistic equation using the Electronic Notebook (ELN) software from IDBS.

in vitro = in vitro ADME; settings: human, Caco-2, pH 7.2
Experimental: Cells were kept at 37 °C in a humidified 5% CO2 atmosphere. Before the permeation assay was run, the culture medium was replaced by an FCS-free HEPES carbonate transport buffer (pH 7.2). For assessment of monolayer integrity, the transepithelial electrical resistance was measured. Test compounds were pre-dissolved in DMSO and added either to the apical or basolateral compartment at a final concentration of 2 µM. Before and after 2 h incubation at 37 °C, samples were taken from both compartments. Analysis of compound content was conducted after precipitation with methanol by LC/MS/MS analysis. Reference compounds were analyzed in parallel as assay control. Permeability (Papp) was calculated in the apical to basolateral (A → B) and basolateral to apical (B → A) directions. The efflux ratio basolateral (B) to apical (A) was calculated by dividing Papp B–A by Papp A–B.

PRC2/EZH2Y641N = biological target: T2, PRC2/EZH2Y641N (Homo sapiens, UniProt Q15910, Y641N); assay: Scintillation proximity assay (SPA) of H3K27 methylation; type: biochemical
T2 construct: Synthetic cDNA encoding N-terminal 6His-tagged full length EZH2^Y641N; 6His (N); made in house; host or cells: Sf9 insect cells (baculovirus co-infection)
Experimental: (§1) Assay-ready plates containing 50 nl of compound dilutions and DMSO controls were filled with 2.5 µL enzyme solution and pre-incubated for 15 min. […] Experiments were also performed without pre-incubation of enzyme and compounds. In this case, the substrate solution was added before enzyme. The reaction was stopped using 1.6 µg/µl streptavidin beads (Perkin Elmer) and 700 µM of SAM (Perkin Elmer). The plates were sealed with transparent foil.
(§2) For equilibrium binding competition (ePCA) and SPA enzyme inhibition assays, raw data import, quality control, normalization, and curve fitting to a 4-parameter logistic equation for IC50 determination were performed using the Genedata Screener® software (Genedata AG). ePCA Ki values were either calculated using the Cheng-Prussof equation[68] or with the GraphPad Prism model “One-site—Fit Ki”.

PRC2/EZH2 Y111L = biological target: T3, PRC2/EZH2 Y111L (Homo sapiens, UniProt Q15910, Y111L); assay: as above; type: biochemical
T3 construct: N-terminal 6His-tagged full length EZH2^Y641N, EZH2^Y111L; 6His (N); made in house; host or cells: Sf9 insect cells (baculovirus co-infection)
Experimental: as §1, §2

PRC2/EZH2Y111D = biological target: T4, PRC2/EZH2Y111D (Homo sapiens, UniProt Q15910, Y111D); assay: as above; type: biochemical
T4 construct: N-terminal 6His-tagged full length EZH2^Y641N, EZH2^Y111L, EZH2^Y111D; 6His (N); made in house; host or cells: Sf9 insect cells (baculovirus co-infection)
Experimental: as §1, §2

PRC2/EZH2+/+ [3] = biological target: T1, PRC2/EZH2+/+; assay: as above; type: biochemical
Experimental: as §1, §2

## Cc1cc(C)c(CN2CCc3c(Cl)cc(-c4c(C)noc4C)c(Cl)c3C2=O)c(=O)[nH]1 [Compound 14]
PRC2/EZH2+/+ [1]; read-out: Kinetic Kd
  Kd: 2.27 nM
PRC2/EZH2+/+ [1]; read-out: Kinetic koff
  koff: 0.00201 s⁻¹
PRC2/EZH2+/+ [1]; read-out: Kinetic kon
  kon: 883000 M⁻¹ s⁻¹
PRC2/EZH2+/+ [2]; EZH2+/+ (+ H3K27me3)
  Ligand Efficiency: 1.6
PRC2/EZH2+/+ [2]; EZH2+/+ (+ H3K27me3), sheet ePCA&kPCA RT, read-out: Equilibrium Ki
  Ki: 0.907 nM
PRC2/EZH2+/+ [2]; EZH2+/+ (- H3K27me3)
  Ligand Efficiency: 1.5
PRC2/EZH2+/+ [2]; EZH2+/+ (- H3K27me3), 5 °C, read-out: Ki (Equilibrium)
  Ki: 1.1 nM
PRC2/EZH2+/+ [2]; EZH2+/+ (- H3K27me3), 15 °C, read-out: Ki (Equilibrium)
  Ki: 0.81 nM
PRC2/EZH2+/+ [2]; EZH2+/+ (- H3K27me3), 30 °C, read-out: Ki (Equilibrium)
  Ki: 1.96 nM
PRC2/EZH2+/+ [2]; EZH2+/+ (- H3K27me3), 37 °C, read-out: Ki (Equilibrium)
  Ki: 2.3 nM
PRC2/EZH2+/+ [2]; EZH2+/+ (- H3K27me3), sheet ePCA&kPCA RT, read-out: Equilibrium Ki
  Ki: 1.47 nM
KARPAS-422 cells
  IC50: 6.4e-07 M
In vitro; 2 µM, 2 h, 37 °C, apical to basolateral, read-out: PK Caco-2 Flux Papp A-B (mean)
  Papp A→B at 2 h, 2 µM: 15.4 ×10⁻⁶ cm/s
In vitro; 2 µM, 2 h, 37 °C, basolateral to apical, read-out: PK Caco-2 Flux Papp B-A (mean)
  Papp B→A at 2 h, 2 µM: 17.4 ×10⁻⁶ cm/s
In vitro; Papp B-A divided by Papp A-B, read-out: PK Caco-2 Flux Efflux Ratio (mean)
  efflux ratio at 2 h, 2 µM: 1.13
PRC2/EZH2Y641N; 0' enzyme:inhibitor pre-incubation, read-out: SPA Mean IC50 (M) - 0' enzyme:inhibitor pre-incubation hEZH2Y641N
  IC50: 1.5e-08 M
PRC2/EZH2Y641N; 15' enzyme:inhibitor pre-incubation, read-out: SPA Mean IC50 (M) - 15' enzyme:inhibitor pre-incubation EZH2Y641N
  IC50: 1.1e-08 M
PRC2/EZH2Y641N; 60' enzyme:inhibitor pre-incubation, read-out: SPA Mean IC50 (M) - 60' enzyme:inhibitor pre-incubation EZH2Y641N
  IC50: 1.2e-08 M
PRC2/EZH2Y641N; from SPA pIC50 (1.4*pIC50 / atom count), 0' pre-incubation
  Ligand Efficiency - 0' enzyme:inhibitor pre-incubation hEZH2Y641N: 1.4
PRC2/EZH2Y641N; from SPA pIC50 (1.4*pIC50 / atom count), 15' pre-incubation
  Ligand Efficiency - 15' enzyme:inhibitor pre-incubation EZH2Y641N: 1.4
PRC2/EZH2Y641N; from SPA pIC50 (1.4*pIC50 / atom count), 60' pre-incubation
  Ligand Efficiency - 60' enzyme:inhibitor pre-incubation EZH2Y641N: 1.4
PRC2/EZH2 Y111L
  Ligand Efficiency - 0' enzyme:inhibitor pre-incubation EZH2 Y111L: 1.0
  Ligand Efficiency - 15' enzyme:inhibitor pre-incubation EZH2 Y111L: 1.1
  Ligand Efficiency - 60' enzyme:inhibitor pre-incubation EZH2 Y111L: 1.0
PRC2/EZH2 Y111L; 0' enzyme:inhibitor pre-incubation, read-out: SPA Mean IC50 (M) - 0' enzyme:inhibitor pre-incubation EZH2 Y111L
  IC50: 1.1e-06 M
PRC2/EZH2 Y111L; 15' enzyme:inhibitor pre-incubation, read-out: SPA Mean IC50 (M) - 15' enzyme:inhibitor pre-incubation EZH2 Y111L
  IC50: 9.6e-07 M
PRC2/EZH2 Y111L; 60' enzyme:inhibitor pre-incubation, read-out: SPA Mean IC50 (M) - 60' enzyme:inhibitor pre-incubation EZH2 Y111L
  IC50: 1.1e-06 M
PRC2/EZH2Y111D
  Ligand Efficiency - 0' enzyme:inhibitor pre-incubation EZH2Y111D: 0.9
  Ligand Efficiency - 15' enzyme:inhibitor pre-incubation EZH2Y111D: 0.9
  Ligand Efficiency - 60' enzyme:inhibitor pre-incubation EZH2Y111D: 0.857
PRC2/EZH2Y111D; 0' enzyme:inhibitor pre-incubation, read-out: SPA Mean IC50 (M) - 0' enzyme:inhibitor pre-incubation EZH2Y111D
  IC50: 1.3e-05 M
PRC2/EZH2Y111D; 15' enzyme:inhibitor pre-incubation, read-out: SPA Mean IC50 (M) - 15' enzyme:inhibitor pre-incubation EZH2Y111D
  IC50: 8.5e-06 M
PRC2/EZH2Y111D; 60' enzyme:inhibitor pre-incubation, read-out: SPA Mean IC50 (M) - 60' enzyme:inhibitor pre-incubation EZH2Y111D
  IC50: 1.3e-05 M
PRC2/EZH2+/+ [3]
  Ligand Efficiency - 0' enzyme:inhibitor pre-incubation EZH2+/+: 1.5
  Ligand Efficiency - 15' enzyme:inhibitor pre-incubation EZH2+/+: 1.5
  Ligand Efficiency - 60' enzyme:inhibitor pre-incubation EZH2+/+: 1.5
PRC2/EZH2+/+ [3]; 0' enzyme:inhibitor pre-incubation, read-out: SPA Mean IC50 (M) - 0' enzyme:inhibitor pre-incubation EZH2+/+
  IC50: 4.1e-09 M
PRC2/EZH2+/+ [3]; 15' enzyme:inhibitor pre-incubation, read-out: SPA Mean IC50 (M) - 15' enzyme:inhibitor pre-incubation EZH2+/+
  IC50: 1.9e-09 M
PRC2/EZH2+/+ [3]; 60' enzyme:inhibitor pre-incubation, read-out: SPA Mean IC50 (M) - 60' enzyme:inhibitor pre-incubation EZH2+/+
  IC50: 1.8e-09 M
